According to article PMC2994776 (BMC Biochemistry, 2010):
Ends that are not written are not given here.

Legend:
[1] = tested on: B9-23 - reactive T-cell clones; conditions: type 1 diabetes; cited from earlier work
[2] = target: T1, DnaK (Escherichia coli, UniProt P0A6Y8); assay: Fluid phase competition binding assay with acrylodan-labeled NR peptide (a-NR); design: species or system bacterial; conditions: read-out: Apparent dissociation equilibrium constant (K'd)
T1 construct: made in house
Procedure: Determination of dissociation equilibrium constants
Peptide NR was labeled with the environmentally sensitive fluorophore acrylodan as described. […] After reaching equilibrium (~1.5 h), emission spectra were recorded from 400 nm to 600 nm (bandpass 4 nm) with a Perkin-Elmer spectrofluorimeter LS50B equipped with a stirrer and a thermostatically controlled cuvette holder. The excitation wavelength was set at 370 nm (bandpass 4 nm). Measurements were performed in a volume of 800 μl in 25 mM Hepes/KOH, 100 mM KCl, 10 mM MgCl2, pH 7.4 containing 1 mM DTT and 1 mM ADP-Pi at 25°C.
(1) ΔF=ΔFmaxxP/(P+Kdx(1+L/K'd))

T1 sequence (P0A6Y8 whole entry): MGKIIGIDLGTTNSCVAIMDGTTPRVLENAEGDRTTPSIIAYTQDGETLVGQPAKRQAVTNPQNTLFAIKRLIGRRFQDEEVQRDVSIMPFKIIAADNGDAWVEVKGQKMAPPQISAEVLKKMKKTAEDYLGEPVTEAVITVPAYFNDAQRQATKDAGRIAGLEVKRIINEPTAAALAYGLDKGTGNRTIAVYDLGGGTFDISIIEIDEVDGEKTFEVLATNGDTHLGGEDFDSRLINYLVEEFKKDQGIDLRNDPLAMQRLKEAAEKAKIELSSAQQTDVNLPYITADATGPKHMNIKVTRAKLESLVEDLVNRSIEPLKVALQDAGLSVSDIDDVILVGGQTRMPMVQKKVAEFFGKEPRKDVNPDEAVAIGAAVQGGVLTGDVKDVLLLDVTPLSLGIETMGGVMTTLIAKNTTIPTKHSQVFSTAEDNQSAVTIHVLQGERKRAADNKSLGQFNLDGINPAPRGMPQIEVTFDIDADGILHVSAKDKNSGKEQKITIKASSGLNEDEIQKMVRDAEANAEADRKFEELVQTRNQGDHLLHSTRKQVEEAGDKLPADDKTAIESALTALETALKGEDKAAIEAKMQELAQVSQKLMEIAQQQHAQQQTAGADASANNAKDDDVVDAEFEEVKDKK

Question: For “B9-23: insulin peptide identified as an immunodominant epitope of autoimmune T-cell reactivity in type 1 diabetes (SHLVEALYLVCGERG; ends and bridges not checked; UniProt P01308 33-47, looked up, fragment) [Peptide B9-23]”, which “immunodominance in autoimmune T-cell reactivity (in words)” value [1] is on record?
Answer: immunodominant epitope of autoimmune T-cell reactivity in type 1 diabetes

Question: For “SHAMAPVLYLQDK [Control peptide (sigma32 aa192-204)]”, which Kd [2] is on record?
Answer: 500 ± 100 nM

Question: Which Kd [2] does the source give for LVEALYLVCGERG [Peptide B11-23] here?
Answer: 2200 ± 400 nM

Question: For VCGERGFFYTPKT [Peptide B18-30], which Kd [2] is on record?
Answer: 51900 ± 12800 nM
